16 substances from patent publication US10214561B2, “Peptide having activity of inhibiting production of toxin by bacterium belonging to genus clostridium” (MIYARISAN PHARMACEUTICAL CO., LTD., priority 2014, dated 2019) can be followed below.

In general, pIC50 refers to the negative decadic logarithm of the IC50, by convention in mol/L.

pIC50: −log10 of the molar value. “Also recorded” adds a separate entry of the source. No end group written: not given here.

The subject of one test is theta-toxin (pfoA) gene. The format is cell-based, Clostridium welchii strain 13.
Details: not given
For the substance ACFWAH [peptide 6n], the “activity of inhibiting toxin expression (theta-toxin pfoA, Northern blot, FIG. 5)” value is recorded as “activity of inhibiting toxin expression was shown; also recorded: inhibitory activity”.
With Cys-Phe-Trp-Ala-His [cyclic CFWAH], the “activity of inhibiting toxin expression (theta-toxin pfoA, Northern blot, FIG. 5)” value is “particularly high activity; also recorded: inhibitory activity”.

The next test concerns Clostridium welchii theta-toxin (pfoA). In kind it is cell-based, Clostridium welchii strain 13.
Details: not given
For the substance “AgrDcb-lactam: Peptide of Formula (2), CFWAH lactam obtained by ammonia conversion of AgrDcb-thiolactone (lactam (positions not given here); also: lactam from ammonia conversion of thiolactone, places not given here)”, the “expression of the gene encoding theta-toxin (pfoA) (FIG. 9)” value was “inhibited”.
Regarding “CAWAA [SEQ ID NO. 33 (Benzyloxycarbonyl group)]”, the “agonist activity or antagonist activity (pfoA expression)” value (“agonist activity or antagonist activity” for short) is recorded as “antagonist activity”.
Consider “CAWFT [SEQ ID NO. 37 (Benzyloxycarbonyl group), reference compound]”, for which the “IC50 (μM)” value is given as “(No activity)”.
For the substance “CLAFT [SEQ ID NO. 39 (Benzyloxycarbonyl group), reference compound]”, the “IC50 (μM)” value is recorded as “(No activity)” and the “agonist activity or antagonist activity” value is “neither the agonist activity nor antagonist activity”.
On to “CLFWS [SEQ ID NO. 42 (Benzyloxycarbonyl group), reference compound]”, for which the “IC50 (μM)” value is recorded as “(No activity)”.
In the case of “CLFWT [SEQ ID NO. 22 (Benzyloxycarbonyl group)]”, the “agonist activity or antagonist activity” value was “antagonist activity”.
In the case of “CLWAT [SEQ ID NO. 31 (Benzyloxycarbonyl group)]”, the “agonist activity or antagonist activity” value is given as “antagonist activity”.
For the substance “CLWFA [SEQ ID NO. 38 (Benzyloxycarbonyl group), reference compound]”, the “IC50 (μM)” value is “(Agonist)” and the “agonist activity or antagonist activity” value is recorded as “agonist activity”.
Regarding “CLWFS [SEQ ID NO. 21 (Benzyloxycarbonyl group)]”, the “agonist activity or antagonist activity” value was “antagonist”.
As for “CLWFT [SEQ ID NO. 40 (Benzyloxycarbonyl group), reference compound]”, the “IC50 (μM)” value is given as “(Agonist)” and the “agonist activity or antagonist activity” value is “agonist activity”.
For “CLWYT [SEQ ID NO. 41 (Benzyloxycarbonyl group), reference compound]”, the “IC50 (μM)” value is “(Agonist)”.
With Cys-Phe-Trp-Ala-His [cyclic CFWAH], the “expression of the gene encoding theta-toxin (pfoA) (FIG. 9)” value is on record as “inhibited”.

The same test, now with this note: read-out: IC50.
Take CAWFA [SEQ ID NO. 20 (Hydrogen atom)]: the pIC50 is 6.52.
Still for that read-out and setting: the same measure for CLFWT [SEQ ID NO. 22 (Hydrogen atom)]: 6.30.
The same measure, in the same setting: under “CLWAS [SEQ ID NO. 35 (Benzyloxycarbonyl group)]” stands 6.00.

The test is the same for the next values; noted with them: read-out: IC50 of the inhibitory activity on the toxin production (pfoA expression amount as indicator).
As to “AgrDcb-lactam: Peptide of Formula (2), CFWAH lactam obtained by ammonia conversion of AgrDcb-thiolactone (lactam (positions not given here); also: lactam from ammonia conversion of thiolactone, places not given here)”, the pIC50 was 5.00.
The same measure, in the same setting: the same measure for Cys-Phe-Trp-Ala-His [cyclic CFWAH]: 5.00.
